Measured values reported in patent publication US11440923B2, “Substituted macrocyclic indole derivatives” (Bayer Aktiengesellschaft, priority 2017, dated 2022).
Where a name gives a salt, the structure may show the parent alone. Read-outs that look alike come from different tables or passages of the source.

Key:
BCL-XL = BCL-XL (Homo sapiens (Human), UniProt Q07817); assay: Protein-protein interaction assay BCL-XL/Bad BH3 peptide (BCL-XL assay, TR-FRET); format: binding; settings: read-out: BCL-XL Assay IC50 (median)
Method in brief: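 Human BCL-XL (aa 1-212, C-terminal His6, E. coli) at 1 nM end concentration, preincubated 10 min at 22 °C with compound (11 concentrations, 0.1 nM–20 μM, duplicates), then biotinylated Bad BH3 peptide (1 nM) added with anti-His-Eu cryptate/streptavidin-XL665. Incubation 1 h at 22 °C then overnight at 4 °C; TR-FRET 665/620 ratio, IC50 from 4-parameter fit.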

SUDHL5 cells = assay: Induction of cytotoxicity in SUDHL5 cells (Assay 6); format: cell-based; settings: 5 h, CellTiter-Glo, read-out: Cytotox SUDHL5 IC50 (median)
Method in brief: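 Run alongside apoptosis measurements, this cytotoxicity readout used cells treated with compound for 5 h at 37 °C and quantified ATP-based luminescence with CellTiter-Glo.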

AMO-1 cells = assay: Antiproliferation assay AMO-1 (Assay 7); format: cell-based; settings: 72 h, CellTiter-Glo, read-out: Antiproli AMO-1 IC50 median
Method in brief: (§1)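 72 h antiproliferation, 37 °C, CellTiter-Glo luminescence. Day 0 plate = CI; DMSO = C0; IC50 calculated from these.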

HMC-1-8 cells = assay: Antiproliferation assay HMC-1-8 (Assay 7); format: cell-based; settings: 72 h, CellTiter-Glo, read-out: Antiproli HMC-1-8 IC50 median
Method in brief: as §1

Chain of BCL-XL (Q07817 1-212): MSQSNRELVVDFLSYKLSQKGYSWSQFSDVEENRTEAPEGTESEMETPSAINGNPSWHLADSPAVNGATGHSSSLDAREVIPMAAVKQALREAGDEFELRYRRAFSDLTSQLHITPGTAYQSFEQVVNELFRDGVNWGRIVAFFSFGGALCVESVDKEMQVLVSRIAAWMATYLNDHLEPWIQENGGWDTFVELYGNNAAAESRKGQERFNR

SMILES	IC50 (BCL-XL)	IC50 (SUDHL5 cells; Homo sapiens, SU-DHL-5, 5 h)	IC50 (AMO-1 cells; Homo sapiens, AMO1, 72 h)	IC50 (HMC-1-8 cells)	IC50 (SUDHL5 cells)	IC50 (AMO-1 cells)
Cc1c2c(nn1C)C(CCO)OCCCCn1c(C(=O)O)c(CCCOc3cccc4ccccc34)c3ccc(Cl)c-2c31 (racemic) [Example 26, (rac)-4-chloro-15-(2-hydroxyethyl)-2,3-dimethyl-7-{3-[(naphthalen-1-yl)oxy]propyl}-2,10,11,12,13,15-hexahydropyrazolo[4′,3′:9,10][1,6]oxazacycloundecino[8,7,6-hi]indole-8-carboxylic Acid]	> 20000 nM	400 nM	577 nM	6780 nM	–	–
CCc1c2c(nn1C)C(C(F)(F)F)OCCCCn1c(C(=O)O)c(CCCOc3cccc4ccccc34)c3ccc(Cl)c-2c31 (racemic) [Example 27, (rac)-4-Chloro-3-ethyl-2-methyl-7-{3-[(naphthalen-1-yl)oxy]propyl}-15-(trifluoromethyl)-2,10,11,12,13,15-hexahydropyrazolo[4′,3′:9,10][1,6]oxazacycloundecino[8,7,6-hi]indole-8-carboxylic Acid]	> 20000 nM	1900 nM	12100 nM	20700 nM	–	–
COCCC1OCCCCn2c(C(=O)O)c(CCCOc3cccc4ccccc34)c3ccc(Cl)c(c32)-c2c1nn(C)c2C (racemic) [Example 37, (rac)-4-chloro-(15-rac)-(2-methoxyethyl)-2,3-dimethyl-7-{3-[(naphthalen-1-yl)oxy]propyl}-2,10,11,12,13,15-hexahydropyrazolo[4′,3′:9,10][1,6]oxazacycloundecino[8,7,6-hi]indole-8-carboxylic Acid]	17100 nM	390 nM	536 nM	7450 nM	–	–
CCc1c2c(nn1C)C(CCOC)OCCCCn1c(C(=O)O)c(CCCOc3cccc4cc(F)ccc34)c3ccc(Cl)c-2c31 (racemic) [Example 41, (rac)-4-chloro-3-ethyl-7-{3-[(6-fluoronaphthalen-1-yl)oxy]propyl}-(15-rac)-(2-methoxyethyl)-2-methyl-2,10,11,12,13,15-hexahydropyrazolo[4′,3′:9,10][1,6]oxazacycloundecino[8,7,6-hi]indole-8-carboxylic Acid]	15000 nM	170 nM	135 nM	1310 nM	–	–
CCc1c2c(nn1C)C(CCN1CCOCC1)OCCCCn1c(C(=O)O)c(CCCOc3cccc4cc(F)ccc34)c3ccc(F)c-2c31 (racemic) [Example 49, (rac)-3-Ethyl-4-fluoro-7-{3-[(6-fluoronaphthalen-1-yl)oxy]propyl}-2-methyl-(15-rac)-[2-(morpholin-4-yl)ethyl]-2,10,11,12,13,15-hexahydropyrazolo[4′,3′:9,10][1,6]oxazacycloundecino[8,7,6-hi]indole-8-carboxylic Acid]	> 20000 nM	34 nM	76.7 nM	1060 nM	–	–
CCc1c2c(nn1C)C(CC(C)(C)O)OCCCCn1c(C(=O)O)c(CCCOc3cccc4cc(F)ccc34)c3ccc(Cl)c-2c31 (racemic) [Example 52, (rac)-4-chloro-3-ethyl-7-{3-[(6-fluoronaphthalen-1-yl)oxy]propyl}-(15-rac)-(2-hydroxy-2-methylpropyl)-2-methyl-2,10,11,12,13,15-hexahydropyrazolo[4′,3′:9,10][1,6]oxazacycloundecino[8,7,6-hi]indole-8-carboxylic Acid]	14700 nM	380 nM	107 nM	3190 nM	–	–
CCc1c2c(nn1C)C(CCN1CCC(F)(F)C1)OCCCCn1c(C(=O)O)c(CCCOc3cccc4cc(F)ccc34)c3ccc(Cl)c-2c31 (racemic) [Example 55, (rac)-4-chloro-(15-rac)-[2-(3,3-difluoropyrrolidin-1-yl)ethyl]-3-ethyl-7-{3-[(6-fluoronaphthalen-1-yl)oxy]propyl}-2-methyl-2,10,11,12,13,15-hexahydropyrazolo[4′,3′:9,10][1,6]oxazacycloundecino[8,7,6-hi]indole-8-carboxylic acid—2-hydroxypropane-1,2,3-tricarboxylic Acid Salt]	> 20000 nM	41 nM	75.3 nM	172 nM	–	–
CCc1c2c(nn1C)C(CCC1CCOCC1)OCCCCn1c(C(=O)O)c(CCCOc3cccc4cc(F)ccc34)c3ccc(Cl)c-2c31 (racemic) [Example 60, (rac)-4-chloro-3-ethyl-7-{3-[(6-fluoronaphthalen-1-yl)oxy]propyl}-2-methyl-(15-rac)-[2-(oxan-4-yl)ethyl]-2,10,11,12,13,15-hexahydropyrazolo[4′,3′:9,10][1,6]oxazacycloundecino[8,7,6-hi]indole-8-carboxylic Acid]	15400 nM	–	92.9 nM	951 nM	77 nM	–
CCc1c2c(nn1C)C(Cc1ccccc1)OCCCCn1c(C(=O)O)c(CCCOc3cccc4cc(F)ccc34)c3ccc(Cl)c-2c31 (racemic) [Example 92, (rac)-(rac-15)-benzyl-4-chloro-3-ethyl-7-{3-[(6-fluoro-1-naphthyl)oxy]propyl}-2-methyl-2,10,11,12,13,15-hexahydropyrazolo[4′,3′:9,10][1,6]oxazacycloundecino[8,7,6-hi]indole-8-carboxylic Acid]	13200 nM	1200 nM	1360 nM	7070 nM	–	–
Cc1c2c(nn1C)C(CCN1CCOCC1)OCCCCn1c(C(=O)O)c(CCCOc3cccc4ccccc34)c3ccc(Cl)c-2c31 (single isomer, unassigned; enantiomer 1) [Example 14, 4-chloro-2,3-dimethyl-15-[2-(morpholin-4-yl)ethyl]-7-{3-[(naphthalen-1-yl)oxy]propyl}-2,10,11,12,13,15-hexahydropyrazolo[4′,3′:9,10][1,6]oxazacycloundecino[8,7,6-hi]indole-8-carboxylic Acid (Enantiomer 1)]	> 20000 nM	–	–	381 nM	23 nM	43.1 nM

Continued, in another order:

IC50 (BCL-XL)	SMILES	IC50 (SUDHL5 cells; Homo sapiens, SU-DHL-5, 5 h)	IC50 (AMO-1 cells; Homo sapiens, AMO1, 72 h)	IC50 (HMC-1-8 cells)	IC50 (SUDHL5 cells)	IC50 (AMO-1 cells)
19800 nM	Cc1c2c(nn1C)C(C1CC1)OCCCCn1c(C(=O)O)c(CCCOc3cccc4ccccc34)c3ccc(Cl)c-2c31 (racemic) [Example 28, (rac)-4-Chloro-15-cyclopropyl-2,3-dimethyl-7-{3-[(naphthalen-1-yl)oxy]propyl}-2,10,11,12,13,15-hexahydropyrazolo[4′,3′:9,10][1,6]oxazacycloundecino[8,7,6-hi]indole-8-carboxylic Acid]	3000 nM	10900 nM	20800 nM	–	–
> 20000 nM	CCc1c2c(nn1C)C(C1CC1)OCCCCn1c(C(=O)O)c(CCCOc3cccc4cc(F)ccc34)c3ccc(Cl)c-2c31 (racemic) [Example 38, (rac)-4-chloro-(15-rac)-cyclopropyl-3-ethyl-7-{3-[(6-fluoronaphthalen-1-yl)oxy]propyl}-2-methyl-2,10,11,12,13,15-hexahydropyrazolo[4′,3′:9,10][1,6]oxazacycloundecino[8,7,6-hi]indole-8-carboxylic Acid]	1500 nM	5010 nM	20300 nM	–	–
12500 nM	CCc1c2c(nn1C)C(CCO)OCCCCn1c(C(=O)O)c(CCCOc3cccc4cc(F)ccc34)c3ccc(Cl)c-2c31 (racemic) [Example 44, (rac)-4-chloro-3-ethyl-7-{3-[(6-fluoronaphthalen-1-yl)oxy]propyl}-(15-rac)-(2-hydroxyethyl)-2-methyl-2,10,11,12,13,15-hexahydropyrazolo[4′,3′:9,10][1,6]oxazacycloundecino[8,7,6-hi]indole-8-carboxylic Acid]	140 nM	161 nM	2630 nM	–	–
> 20000 nM	CCc1c2c(nn1C)C(c1ccccc1)OCCCCn1c(C(=O)O)c(CCCOc3cccc4cc(F)ccc34)c3ccc(Cl)c-2c31 (racemic) [Example 59, (rac)-4-chloro-3-ethyl-7-{3-[(6-fluoronaphthalen-1-yl)oxy]propyl}-2-methyl-(15-rac)-phenyl-2,10,11,12,13,15-hexahydropyrazolo[4′,3′:9,10][1,6]oxazacycloundecino[8,7,6-hi]indole-8-carboxylic Acid]	640 nM	753 nM	3410 nM	–	–
> 20000 nM	CCc1c2c(nn1C)C(CCCN1CCOCC1)OCCCCn1c(C(=O)O)c(CCCOc3cccc4cc(F)ccc34)c3ccc(Cl)c-2c31 (racemic) [Example 65, (rac)-4-chloro-3-ethyl-7-{3-[(6-fluoronaphthalen-1-yl)oxy]propyl}-2-methyl-(15-rac)-[3-(morpholin-4-yl)propyl]-2,10,11,12,13,15-hexahydropyrazolo[4′,3′:9,10][1,6]oxazacycloundecino[8,7,6-hi]indole-8-carboxylic Acid]	78 nM	89.7 nM	400 nM	–	–
13300 nM	CCc1c2c(nn1C)C(CCC(C)(C)O)OCCCCn1c(C(=O)O)c(CCCOc3cccc4cc(F)ccc34)c3ccc(Cl)c-2c31 (racemic) [Example 74, (rac)-4-chloro-3-ethyl-7-{3-[(6-fluoronaphthalen-1-yl)oxy]propyl}-(15-rac)-(3-hydroxy-3-methylbutyl)-2-methyl-2,10,11,12,13,15-hexahydropyrazolo[4′,3′:9,10][1,6]oxazacycloundecino[8,7,6-hi]indole-8-carboxylic Acid]	51 nM	35.8 nM	397 nM	–	–
